The inhibition is the percentage by which the read-out fell short of the control. A lower inhibition goes with a weak effect. A word on the ILS: it is how much longer treated animals lived than controls.

What all share (type): functional
The test system of one test is RPMI-8226. The test is described as follows: Effect on protein synthesis was determined by incorporation of radioligand into 8226 human myeloma cells at a concentration of 1 ug/mL. (*: >1 log cell kill).
The test system of test [1] is L1210. The test is described as follows: Antileukemic activity against L-1210 cells in mice at a dose of 80 mg/kg administered intraperitoneally after 5 day treatment. The conditions noted are these: Mus musculus, L1210, ip, 120 h, route intraperitoneal.
Test [2] deals with L1210. The test is described as follows: Effect on RNA synthesis was determined by incorporation of radioligand into L1210 murine leukemia at a concentration of 10 ug/mL (*: >1 log cell kill). The conditions noted are these: Mus musculus.
The subject of test [3] is Mus musculus. The test is described as follows: Tested for high-dose toxicity in mice at a significant dose of 60 mg/kg administered intraperitoneally after 5 days of treatment. The conditions noted are these: route intraperitoneal.
In test [4] the test system is Mus musculus. The test is described as follows: Tested for skin toxicity in BALB/c mice at a significant dose of 0.75 mg/kg administered intraintradermally and involved concentric circular areas of induration.
For test [5], the system named is Mus musculus. The test is described as follows: Tested for skin toxicity in BALB/c mice at a significant dose of 2.5 mg/kg administered intraintradermally and involved concentric circular areas of erythema.
The subject of test [6] is Mus musculus. The test is described as follows: Tested for percent average weekly weight change in mice at a significant dose of 90 mg/kg administered intraperitoneally after 5 days of treatment. As to conditions: route intraperitoneal.
Another test concerns P388. The test is described as follows: Antileukemic activity against P-388 in mice at a dose of 70 mg/kg administered intraperitoneally after 5 day treatment. The conditions noted are these: Mus musculus, P388, ip, 120 h, route intraperitoneal.

The compound `CN(C)CCNCc1c2ccccc2c(CNCCN(C)C)c2ccccc12` yielded an inhibition at 1 µg/mL with RPMI-8226 of 45.9%. The compound further returned an ILS at 80 mg/kg in the test on L1210 [1] of 15%. In addition, testing at 10 µg/mL in the test on L1210 [2] gave an inhibition of 96.3%. The compound also gave a Lethality in the test on Mus musculus [3] of 0%. The “Extent of skin lesions” value worked out at 1.7 cm**2 in the test with Mus musculus [4] and 5 cm**2 in the test with Mus musculus [5]. In addition, in the test with Mus musculus [6], the “Average weekly weight change” value is reported as -11%. The ILS at 70 mg/kg in the test on P388 was 10%.

The values above are taken from ChEMBL document CHEMBL1123796, “New antitumor agents containing the anthracene nucleus” (1987).
